The nature of the series: Blood levels of T3 after intraperitoneal administration in mice. Format: in vivo. The procedure: This T3-nanoparticle is administered intraperitoneally in mice.

For the compound `N[C@@H](Cc1cc(I)c(Oc2ccc(O)c(I)c2)c(I)c1)C(=O)O` [free T3, triiodothyronine], where the note is “intraperitoneal injection, FIG. 8B”, the T3 blood levels result is on record as “increased T3 blood levels which were followed by a subsequent leveling off”. Moreover, for the setting “intraperitoneal, FIG. 8A”, the “amount of T3 remaining in the blood over time” value was “A lesser amount of T3 remains over time”.

These data come from US9381255B2, “Formulations comprising T3 nanoparticles” (Avant Garde Therapeutics and Technologies LLC, priority 2009, dated 2016).
